Measurements published in patent US7229990B2, “Bicyclic heteroaromatic compounds” (N.V. Organon, priority 2000, dated 2007).
Like-named read-outs stand apart in the source and are kept apart here.

Target: T1, human LH receptor (Homo sapiens, UniProt P22888)
T1 construct: expressed in transfected cells; host or cells: Chinese Hamster Ovary (CHO) cells, stably transfected; cotransfected with a CRE-luciferase reporter
Experiment: CHO-LH in vitro bioactivity (CRE-luciferase reporter, LH agonistic activity)
Format: cell-based
Description: LH agonistic activity of compounds was tested in Chinese Hamster Ovary (CHO) cells stably transfected with the human LH receptor and cotransfected with a cAMP responsive, element (CRE)/promotor directing the expression of a firefly luciferase reporter gene. Binding of ligand to the Gs-coupled LH receptor will result in an increase of cAMP, which in turn will induce an increased transactivation of the luciferase reporter construct. The luciferase signal was quantified using a luminescence counter. For test compounds, EC50 values (concentration of test compound causing half-maximal (50%) stimulation) were calculated. For that purpose the software program GraphPad PRISM, version 3.0 (GraphPad software Inc., San Diego) was used.

[1] = CHO cells stably transfected with the human LH receptor and cotransfected with CRE/promotor firefly luciferase reporter, luciferase signal, read-out: EC50 value (concentration of test compound causing half-maximal (50%) stimulation)

T1 sequence (P22888 27-699): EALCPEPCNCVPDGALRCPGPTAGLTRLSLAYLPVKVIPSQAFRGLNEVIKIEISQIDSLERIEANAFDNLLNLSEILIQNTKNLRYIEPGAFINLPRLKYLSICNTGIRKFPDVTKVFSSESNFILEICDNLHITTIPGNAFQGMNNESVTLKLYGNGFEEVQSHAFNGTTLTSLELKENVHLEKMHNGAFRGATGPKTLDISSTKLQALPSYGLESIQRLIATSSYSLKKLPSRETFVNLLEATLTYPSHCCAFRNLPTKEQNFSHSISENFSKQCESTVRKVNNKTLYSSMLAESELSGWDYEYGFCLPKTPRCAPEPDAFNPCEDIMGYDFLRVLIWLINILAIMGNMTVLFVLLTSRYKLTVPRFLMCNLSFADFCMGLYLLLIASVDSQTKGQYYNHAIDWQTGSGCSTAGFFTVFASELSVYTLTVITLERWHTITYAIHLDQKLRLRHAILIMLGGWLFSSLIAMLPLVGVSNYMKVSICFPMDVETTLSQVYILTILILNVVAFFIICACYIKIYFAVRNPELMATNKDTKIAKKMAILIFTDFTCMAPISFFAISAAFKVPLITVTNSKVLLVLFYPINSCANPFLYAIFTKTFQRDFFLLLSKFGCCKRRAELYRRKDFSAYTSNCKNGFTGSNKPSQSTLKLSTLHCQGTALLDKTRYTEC

EC50 [1] [nM]	Compound	EC50 [nM]
< 10	CSc1nc(-c2cccc(NC(=O)N3CCOCC3)c2)c2c(N)c(C(=O)NC(C)(C)C)sc2n1 [Example 21]	
< 10	CSc1nc(-c2cccc(NC(=O)N3CC=CCC3)c2)c2c(N)c(C(=O)NC(C)(C)C)sc2n1 [Example 23, tert-Butyl 5-amino-2-methylthio-4-(3-(1,2,3,6-tetrahydropyridinocarbonylamino)-phenyl)-thieno[2,3-d]pyrimidine-6-carboxamide]	
< 10	COC(=O)Nc1cccc(-c2nc(SC)nc3sc(C(=O)NC(C)(C)C)c(N)c23)c1 [Example 15, tert-Butyl 5-amino-2-methylthio-4-(3-(methoxycarbonylamino)-phenyl)-thieno[2,3-]pyrimidine-6-carboxamide]	

Continued, compound first:

Compound	EC50 [1] [nM]	EC50 [nM]
CCOC(=O)Nc1cccc(-c2nc(SC)nc3sc(C(=O)NC(C)(C)C)c(N)c23)c1 [Example 18, tert-Butyl 5-amino-2-methylthio-4-(3-(ethoxycarbonylamino)-phenyl)-thieno[2,3-d]pyrimidine-6-carboxamide]	< 10	
CCN(CC)C(=O)Oc1cccc(-c2nc(SC)nc3sc(C(=O)NC(C)(C)C)c(N)c23)c1 [Example 7]		< 10
CN(C)C(=O)Nc1cccc(-c2nc(-c3ccccc3)nc3sc(C(=O)NC(C)(C)C)c(N)c23)c1 [Example 32, tert-Butyl 5-amino-2-phenyl-4-(3-((N,N-dimethylamino)-carbonylamino)-phenyl)-thieno[2,3-d]pyrimidine-6-carboxamide]	< 10	
C=CCOC(=O)Nc1cccc(-c2nc(SC)nc3sc(C(=O)NC(C)(C)C)c(N)c23)c1 [Example 16, tert-Butyl 5-amino-2-methylthio-4-(3-(allyloxycarbonylamino)-phenyl)-thieno[2,3-d]pyrimidine-6-carboxamide]	< 10	
